Activity calls are given as the source filed them.
Legend:
Oryctolagus cuniculus [1] = organism: Oryctolagus cuniculus; test: Inhibition of increase in potential difference caused by diarrhea inducing secretogogues determined in rabbit; 0 = inactive; type: functional
Rattus norvegicus [2] = organism: Rattus norvegicus; test: animal or person; conditions: sc, read-out: ID50
[3] = Partition coefficient (logP); type: physicochemical; conditions: octanol/water
Rattus norvegicus [4] = organism: Rattus norvegicus; test: Activity in the spontaneously hypertensive rats (SHR); inactive = post treatment BP did not change; type: functional, organism-based
Oryctolagus cuniculus [5] = organism: Oryctolagus cuniculus; test: Inhibition of increase in potential difference caused by diarrhea inducing secretogogues determined in rabbit; + = moderate activity; type: functional, organism-based
Oryctolagus cuniculus [6] = organism: Oryctolagus cuniculus; test: Inhibition of increase in potential difference caused by diarrhea inducing secretogogues determined in rabbit; ++ = active; type: functional, organism-based
Rattus norvegicus [7] = type: functional; conditions: po, read-out: ID50 (the source's name)
Rattus norvegicus [8] = organism: Rattus norvegicus; test: Activity in the spontaneously hypertensive rats (SHR); active = post treatment BP changed; type: functional, organism-based
Rattus norvegicus [9] = type: functional; conditions: sc, read-out: ID50 (the source's name)
Rattus norvegicus [10] = organism: Rattus norvegicus; test: Activity in the spontaneously hypertensive rats (SHR); rats died due to exophthalmic side effects; type: functional, organism-based
Rattus norvegicus [11] = organism: Rattus norvegicus; test: Activity in the spontaneously hypertensive rats (SHR); rats died due to convulsive side effects; type: functional, organism-based
Oryctolagus cuniculus [12] = organism: Oryctolagus cuniculus; test: IInhibition of increase in potential difference caused by diarrhea inducing secretogogues determined in rabbit; 0 = inactive; type: functional

In the case of `Cc1ccc2ccccc2c1OC(C)C1=NCCN1` (centres undefined), the Activity (Oryctolagus cuniculus [1]) is reported as 0 and the ED50 (Rattus norvegicus [2]) is reported as > 100 mg/kg.

For `Cc1cc(C(=O)O)cc(C)c1OC(C)C1=NCCN1` (centres undefined), the Activity (Oryctolagus cuniculus [1]) was 0 and the ED50 (Rattus norvegicus [2]) was > 100 mg/kg.

Work on `Cc1cccc(C)c1OC(C)C1=NC2CCCCC2N1` (centres undefined) yielded an ED50 (Rattus norvegicus [2]) of 24.1 mg/kg.

`Cc1c(N)cccc1OC(C)C1=NCCN1` (stereo in doubt; 32) [listing 1 of 2 here] gave a logP ([3]; read-out: logP) of 2.

For `Cc1c(O)cccc1OC(C)C1=NCCN1` (centres undefined), the logP ([3]; read-out: logP) was 3.21, the Activity (Rattus norvegicus [4]) was “inactive” and the Activity (Oryctolagus cuniculus [5]) was “moderate activity”. It also gave an ED50 (Rattus norvegicus [2]) of 17.2 mg/kg.

In the case of `CCc1cccc(CC)c1OC(C)C1=NCCN1` (centres undefined), the logP ([3]; read-out: logP) is reported as 5.41, the Activity (Rattus norvegicus [4]) is reported as “inactive” and the Activity (Oryctolagus cuniculus [6]) is reported as “Active”. The ED50 (Rattus norvegicus [2]) was 2.3 mg/kg.

Molecule `CCOC(=O)Nc1cccc(OC(C)C2=NCCN2)c1C` (centres undefined) has a logP ([3]; read-out: logP) of 3.27, an Activity (Oryctolagus cuniculus [1]) of 0 and an ED50 (Rattus norvegicus [7]) of 4.6 mg/kg. The Activity (Rattus norvegicus [8]) was “Active” and the ED50 (Rattus norvegicus [2]) was 9.5 mg/kg.

Work on `CCC(Oc1c(C)cccc1C)C1=NCCN1` (centres undefined) yielded a logP ([3]; read-out: logP) of 4.88, an Activity (Oryctolagus cuniculus [1]) of 0 and an ED50 (Rattus norvegicus [2]) of 5.2 mg/kg.

For `Cc1c(OCc2ccccc2)cccc1OC(C)C1=NCCN1` (centres undefined), the Activity (Oryctolagus cuniculus [5]) was “moderate activity” and the ED50 (Rattus norvegicus [2]) was > 100 mg/kg.

For `Cc1c(N)cccc1OC(C)C1=NCCN1` (stereo in doubt; 32) [listing 2 of 2 here], the Activity (Rattus norvegicus [8]) was “Active”.

Molecule `Cc1c(N)cc(N)c(C)c1OC(C)C1=NCCN1` (centres undefined) has an ED50 (Rattus norvegicus [9]) of 32 mg/kg.

With `Cc1c(N)cccc1OC(CCO)C1=NCCN1` (centres undefined) the logP ([3]; read-out: logP) was 1.2, the Activity (Rattus norvegicus [10]) was “rats died due to exophthalmic side effects” and the ED50 (Rattus norvegicus [7]) was 1.3 mg/kg. It also gave an ED50 (Rattus norvegicus [2]) of 1.2 mg/kg.

For `Cc1cc2[nH]cnc2c(C)c1OC(C)C1=NCCN1` (centres undefined), the Activity (Oryctolagus cuniculus [1]) was 0 and the ED50 (Rattus norvegicus [2]) was > 100 mg/kg.

In the case of `Cc1cc(Br)c(N)c(C)c1OC(C)C1=NCCN1` (centres undefined), the ED50 (Rattus norvegicus [2]) is reported as > 100 mg/kg.

For `CC(Oc1c(Cl)cccc1Cl)C1=NCCN1` (centres undefined) [LOFEXIDINE], the ED50 (Rattus norvegicus [2]) was < 2 mg/kg.

For `Cc1cc(C(=O)OC(C)(C)C)cc(C)c1OC(C)C1=NCCN1` (centres undefined), the ED50 (Rattus norvegicus [2]) was > 100 mg/kg.

In the case of `COc1cccc(OC)c1OC(C)C1=NCCN1` (centres undefined), the ED50 (Rattus norvegicus [2]) is reported as > 100 mg/kg.

Work on `Clc1cccc(Cl)c1NC1=NCCN1` [CLONIDINE] yielded an ED50 (Rattus norvegicus [2]) of 0.3 mg/kg.

In the case of `Cc1ncccc1OC(C)C1=NCCN1` (centres undefined), the ED50 (Rattus norvegicus [9]) is reported as > 100 mg/kg.

With `CCOC(=O)Nc1ccc(C)c(OC(C)C2=NCCN2)c1C` (centres undefined) the logP ([3]; read-out: logP) was 4.4, the Activity (Oryctolagus cuniculus [5]) was “moderate activity” and the Activity (Rattus norvegicus [8]) was “Active”. For the same molecule, the ED50 (Rattus norvegicus [2]) was 3 mg/kg.

For `Cc1cccc(C)c1OC(CCO)C1=NCCN1` (centres undefined), the logP ([3]; read-out: logP) was 2.89, the Activity (Rattus norvegicus [4]) was “inactive” and the Activity (Oryctolagus cuniculus [5]) was “moderate activity”. For the same molecule, the ED50 (Rattus norvegicus [2]) was 6.9 mg/kg.

In the case of `Cc1ccc(N)cc1OC(C)C1=NCCN1` (centres undefined), the Activity (Oryctolagus cuniculus [1]) is reported as 0 and the ED50 (Rattus norvegicus [2]) is reported as > 100 mg/kg.

With `Cc1cc(C)c(OC(C)C2=NCCN2)cc1N` (centres undefined) the logP ([3]; read-out: logP) was 3.01, the Activity (Oryctolagus cuniculus [1]) was 0 and the ED50 (Rattus norvegicus [2]) was 7.8 mg/kg.

For `CC(Oc1cccc2ccccc12)C1=NCCN1` (centres undefined), the logP ([3]; read-out: logP) was 4.35, the Activity (Rattus norvegicus [4]) was “inactive” and the Activity (Oryctolagus cuniculus [1]) was 0. It also gave an ED50 (Rattus norvegicus [7]) of 16.1 mg/kg and an ED50 (Rattus norvegicus [2]) of 17.9 mg/kg.

In the case of `Cc1c(N)cccc1OC(C)C1=NCCN1` (single isomer, unassigned), the Activity (Rattus norvegicus [8]) is reported as “Active”.

For `C=CCc1cccc(CC=C)c1OC(C)C1=NCCN1` (centres undefined), the ED50 (Rattus norvegicus [2]) was > 100 mg/kg.

With `Cc1cc([N+](=O)[O-])cc(C)c1OC(C)C1=NCCN1` (centres undefined) the Activity (Oryctolagus cuniculus [1]) was 0 and the ED50 (Rattus norvegicus [2]) was > 100 mg/kg.

Work on `Cc1ccc(OC(C)C2=NCCN2)c(C)c1` (centres undefined) yielded a logP ([3]; read-out: logP) of 4.35 and an ED50 (Rattus norvegicus [2]) of 24.1 mg/kg.

For `Cc1cccc(C)c1OC(C)C1=NCCN1` (centres undefined), the logP ([3]; read-out: logP) was 4.39, the Activity (Oryctolagus cuniculus [6]) was “Active” and the ED50 (Rattus norvegicus [7]) was 2.7 mg/kg. For the same molecule, the ED50 (Rattus norvegicus [2]) was 1.7 mg/kg.

In the case of `Cc1c(N)cccc1OC(C)C1=NCCN1` (centres undefined), the Activity (Oryctolagus cuniculus [6]) is reported as “Active”.

For `CC(Oc1cncc2ccccc12)C1=NCCN1` (centres undefined), the ED50 (Rattus norvegicus [2]) was 21.7 mg/kg.

In the case of `CC(Oc1ccc2ccccc2c1)C1=NCCN1` (centres undefined), the Activity (Oryctolagus cuniculus [1]) is reported as 0 and the ED50 (Rattus norvegicus [2]) is reported as > 100 mg/kg.

For `Cc1ccc2[nH]ccc2c1OC(C)C1=NCCN1.ClCCl` (centres undefined), the logP ([3]; read-out: logP) was 3.77, the Activity (Rattus norvegicus [11]) was “rats died due to convulsive side effects” and the ED50 (Rattus norvegicus [7]) was 1.2 mg/kg. For the same molecule, the ED50 (Rattus norvegicus [2]) was 1.6 mg/kg.

For `CC(Oc1cccc2[nH]ccc12)C1=NCCN1` (centres undefined), the logP ([3]; read-out: logP) was 3.12, the Activity (Oryctolagus cuniculus [6]) was “Active” and the ED50 (Rattus norvegicus [7]) was 6.6 mg/kg. For the same molecule, the Activity (Rattus norvegicus [8]) was “Active” and the ED50 (Rattus norvegicus [2]) was 5.7 mg/kg.

Molecule `Cc1cccc(C)c1OC(C)C1=NCCN1C` (centres undefined) has an ED50 (Rattus norvegicus [2]) of 32.4 mg/kg.

For `Cc1cccc(C)c1OC(C)(C)C1=NCCN1`, the logP ([3]; read-out: logP) was 4.66, the Activity (Oryctolagus cuniculus [6]) was “Active” and the ED50 (Rattus norvegicus [2]) was 3.7 mg/kg.

For `Cc1ccc(N)c(C)c1OC(C)C1=NCCN1` (centres undefined), the logP ([3]; read-out: logP) was 3.31, the Activity (Oryctolagus cuniculus [6]) was “Active” and the Activity (Rattus norvegicus [8]) was “Active”. It also gave an ED50 (Rattus norvegicus [2]) of 1 mg/kg.

In the case of `Cc1cccc(C)c1OC(C)C1=NCCS1` (centres undefined), the Activity (Oryctolagus cuniculus [1]) is reported as 0 and the ED50 (Rattus norvegicus [2]) is reported as > 100 mg/kg.

In the case of `CC(=O)Nc1cccc(OC(C)C2=NCCN2)c1C` (centres undefined), the logP ([3]; read-out: logP) is reported as 2.43, the Activity (Oryctolagus cuniculus [1]) is reported as 0 and the ED50 (Rattus norvegicus [2]) is reported as 7 mg/kg.

For `Cc1c(OC(C)C2=NCCN2)cccc1N(C)C` (centres undefined), the logP ([3]; read-out: logP) was 4, the Activity (Oryctolagus cuniculus [1]) was 0 and the ED50 (Rattus norvegicus [2]) was 4 mg/kg.

With `Cc1cccc(C)c1NC(C)C1=NCCN1` (centres undefined) the Activity (Oryctolagus cuniculus [1]) was 0 and the ED50 (Rattus norvegicus [2]) was > 100 mg/kg.

For `Cc1cccc(C)c1OC(C)C1=NCCCN1` (centres undefined), the Activity (Oryctolagus cuniculus [1]) was 0 and the ED50 (Rattus norvegicus [2]) was > 100 mg/kg.

In the case of `Cc1cccc(C)c1SC(C)C1=NCCN1` (centres undefined), the Activity (Oryctolagus cuniculus [1]) is reported as 0 and the ED50 (Rattus norvegicus [2]) is reported as > 100 mg/kg.

With `Cc1cc(Br)cc(C)c1OC(C)C1=NCCN1` (centres undefined) the ED50 (Rattus norvegicus [2]) was > 100 mg/kg.

In the case of `Cc1cc(C)c(OC(C)C2=NCCN2)c(C)c1` (centres undefined), the logP ([3]; read-out: logP) is reported as 5, the Activity (Rattus norvegicus [4]) is reported as “inactive” and the Activity (Oryctolagus cuniculus [1]) is reported as 0. It also gave an ED50 (Rattus norvegicus [2]) of 11.1 mg/kg.

In the case of `CCC(Oc1cccc(N)c1C)C1=NCCN1` (centres undefined), the logP ([3]; read-out: logP) is reported as 3.19, the ED50 (Rattus norvegicus [7]) is reported as 5.2 mg/kg and the Activity (Rattus norvegicus [8]) is reported as “Active”. The ED50 (Rattus norvegicus [2]) was 4.5 mg/kg.

With `Cc1cc(N)cc(C)c1OC(C)C1=NCCN1` (centres undefined) the Activity (Oryctolagus cuniculus [12]) was 0 and the ED50 (Rattus norvegicus [2]) was > 100 mg/kg.

In the case of `CCCc1cccc(CCC)c1OC(C)C1=NCCN1` (centres undefined), the Activity (Oryctolagus cuniculus [5]) is reported as “moderate activity” and the ED50 (Rattus norvegicus [2]) is reported as > 100 mg/kg.

In the case of `CC(Oc1cccc(N)c1)C1=NCCN1` (centres undefined), the Activity (Oryctolagus cuniculus [1]) is reported as 0 and the ED50 (Rattus norvegicus [2]) is reported as > 100 mg/kg.

With `COc1cccc(OC(C)C2=NCCN2)c1C` (centres undefined) the ED50 (Rattus norvegicus [2]) was > 100 mg/kg.

With `Cc1cccc(C)c1OC(C)c1nc2ccccc2[nH]1` (centres undefined) the ED50 (Rattus norvegicus [2]) was > 100 mg/kg.

With `CCc1ccccc1OC(C)C1=NCCN1` (centres undefined) the logP ([3]; read-out: logP) was 4.23, the Activity (Oryctolagus cuniculus [5]) was “moderate activity” and the ED50 (Rattus norvegicus [2]) was 22.9 mg/kg.

`Cc1c(N)cccc1OC(C)C1=NCCN1.Cl.Cl` (centres undefined) showed a logP [3] of 2, an ED50 (Rattus norvegicus [7]) of 1.3 mg/kg and an ED50 (Rattus norvegicus [2]) of 5.6 mg/kg.

For `Cc1cccc(C)c1OCC1=NCCN1`, the Activity (Oryctolagus cuniculus [5]) was “moderate activity” and the ED50 (Rattus norvegicus [2]) was > 100 mg/kg.

`CC(Oc1cccn2ncnc12)C1=NCCN1.CO` (centres undefined) gave an ED50 (Rattus norvegicus [2]) of 26.5 mg/kg.

With `Cc1cccc(C)c1CC(C)C1=NCCN1` (centres undefined) the Activity (Oryctolagus cuniculus [1]) was 0 and the ED50 (Rattus norvegicus [2]) was > 100 mg/kg.
